What was measured:
[1] = tested on: Cancer stem cells (CSCs) isolated from murine Ptch+/− MB; test: Gli1 mRNA in MB cancer stem cells (neurospheres); type: cell-based; conditions: 48 h, quantitative RT-PCR
Method: FIG. 13. […] Gli1 mRNA levels were determined by quantitative RT-PCR using HPRT as normalizer.
Hh activity preferentially associates to stemness features. For this reason, the Hh pathway antagonist Glabrescione B has also been investigated for its ability to modulate the behavior of MB cancer stem cells (CSCs).
It has been described that Hh activity preferentially associates to stemness features. In order to determine whether Glabrescione B also modulates the behavior of MB cancer stem cells (CSCs), neurospheres isolated from murine Ptch^+/− MB were treated with Glabrescione B for 48 h and the levels of Gli1 were determined by quantitative RT-PCR. Murine MBs were isolated from Ptch1^+/− mice (Goodrich, Milenkivic et al. 1997). Tissues were collected in HBSS supplemented with 0.5% glucose and penicillin-streptomycin, grossly triturated with serological pipette and treated with DNAse I to a final concentration of 0.04% for 20 min. Finally, cells aggregates were mechanically dissociated using pipettes of decreasing bore size to obtain a single cell suspension. […]

Gli1 = target: T1, Gli1 (Homo sapiens, UniProt P08151); test: Gli1-mediated transcription luciferase assay in HEK293 cells transiently expressing Gli1; type: cell-based; conditions: 24 h
T1 construct: expressed in transfected cells; host or cells: HEK293
T1 sequence (P08151 1-1106): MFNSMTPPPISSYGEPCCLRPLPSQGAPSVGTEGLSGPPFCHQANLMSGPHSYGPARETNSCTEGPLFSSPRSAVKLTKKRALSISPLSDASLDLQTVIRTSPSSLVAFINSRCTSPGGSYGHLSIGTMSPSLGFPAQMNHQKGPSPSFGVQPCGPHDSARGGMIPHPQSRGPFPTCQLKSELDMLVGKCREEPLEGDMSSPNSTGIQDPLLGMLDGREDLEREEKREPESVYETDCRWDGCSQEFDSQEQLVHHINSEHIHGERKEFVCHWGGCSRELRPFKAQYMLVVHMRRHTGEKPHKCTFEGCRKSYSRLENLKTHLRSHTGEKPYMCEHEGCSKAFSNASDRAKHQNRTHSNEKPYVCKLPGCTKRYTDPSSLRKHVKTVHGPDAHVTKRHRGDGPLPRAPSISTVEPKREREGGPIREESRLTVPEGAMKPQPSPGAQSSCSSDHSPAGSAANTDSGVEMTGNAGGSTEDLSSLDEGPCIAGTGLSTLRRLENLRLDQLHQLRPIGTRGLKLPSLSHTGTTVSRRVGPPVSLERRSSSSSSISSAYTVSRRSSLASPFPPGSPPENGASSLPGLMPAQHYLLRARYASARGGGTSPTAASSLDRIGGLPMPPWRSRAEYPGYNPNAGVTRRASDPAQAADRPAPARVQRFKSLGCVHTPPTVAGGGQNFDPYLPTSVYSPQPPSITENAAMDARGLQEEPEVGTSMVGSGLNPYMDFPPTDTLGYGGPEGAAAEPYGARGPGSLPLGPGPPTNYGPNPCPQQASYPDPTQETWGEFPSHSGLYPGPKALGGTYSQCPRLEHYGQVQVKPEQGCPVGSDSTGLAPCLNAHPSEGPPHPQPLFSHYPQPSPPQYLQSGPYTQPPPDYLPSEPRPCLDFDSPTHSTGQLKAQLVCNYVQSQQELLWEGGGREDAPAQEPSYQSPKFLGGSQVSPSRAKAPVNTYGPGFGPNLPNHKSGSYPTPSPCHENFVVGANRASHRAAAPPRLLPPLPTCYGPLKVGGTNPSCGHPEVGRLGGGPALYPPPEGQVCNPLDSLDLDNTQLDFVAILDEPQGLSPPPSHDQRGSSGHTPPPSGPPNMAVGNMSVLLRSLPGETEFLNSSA
Method: FIG. 7. Inhibition of Gli1-induced transcription in transfected HEK293 cells. HEK293 cells were transfected with 12×GliBS-Luc and pRL-TK Renilla (normalization control) plus control (empty vector) or Gli1 vector and treated with Glabrescione B or GANT61 (20 μM) or vehicle only (DMSO, dimethyl sulfoxide 0.5%—Gli1 bar in the graph) for 24 h and luciferase activity tested. Shown is the mean of three independent experiments. Error bars indicate SD.
Efficacy of Glabrescione B to directly target Gli1 protein, the final effector of Hh pathway, was also tested. […] GANT61, the only small-molecule described to inhibit Gli1 function (Lauth et al., PNAS 104: 8455-8460), was included as positive control.
To investigate the ability of Glabrescione B to block downstream Hh signaling by targeting Gli1 protein functions, the inventors performed a luciferase assay in HEK293 cells transiently expressing Gli1. The cells were seeded in 24-multiwell plates and the day after transfected with Gli1 expression vector together with the reporter plasmids 12×GliBS-Luc and pRL-TK Renilla reniformis (Kogerman P et al, 1999; Everett L et al, 1999). […] After 24 h of treatment cells were lysed and analyzed by using the Dual Luciferase kit according to manufacturer's instructions (Dual-Luciferase® Reporter assay system; Promega, cat. # E1980). […]

IC50 (Gli1; 12×GliBS-Luc reporter): ~15 µM
Compound: COc1cc(OC)c2c(=O)c(-c3ccc(OCC=C(C)C)c(OCC=C(C)C)c3)coc2c1 [Glabrescione B, 3-(3′,4′-bis(3-methylbut-2-enyloxy)phenyl)-5,7-dimethoxy-4H-chromen-4-one]
Gli1 mRNA levels in MB CSCs [1]: reduction of Gli1 mRNA levels
Gli1-induced transcription (Gli1; GANT61 20 μM as positive control): capable of interfering with Gli1-induced transcription in a dose-dependent manner

Source: patent US10093642B2, “Multitarget hedgehog pathway inhibitors and uses thereof” (UNIVERSITA' DEGLI STUDI DI SIENA, priority 2013, dated 2018)
